ChEMBL document CHEMBL1130994, “3-trifluoromethylcarbacephems: synthesis of broad spectrum antibacterial compounds” (1998)
In brackets after ≈: the same amount, converted by molar mass.

How the values were obtained:
Type in all cases: functional
Enterococcus faecalis = test: Compound was evaluated for inhibitory activity against 2041 Enterococcus faecalis Gp.D streptococcus penicillin susceptible
Staphylococcus aureus [1] = test: Compound was evaluated for inhibitory activity against X1.1 Staphylococcus aureus penicillin sensitive
Providencia stuartii [2] = test: Compound was evaluated for minimum inhibitory concentration against PR33 Providencia stuartii
Enterobacter cloacae [3] = test: Compound was evaluated for inhibitory activity against 265a Enterobacter cloacae beta-lactamase
Escherichia coli [4] = test: Compound was evaluated for inhibitory activity against TEM Escherichia coli beta-lactamase
Morganella morganii [5] = test: Compound was evaluated for minimum inhibitory concentration against PR15 Morganella morganii
Acinetobacter [6] = test: Compound was evaluated for minimum inhibitory concentration against AC12 Acinetobacter
Salmonella [7] = test: Compound was evaluated for minimum inhibitory concentration against X514 Salmonella
Haemophilus influenzae [8] = test: Compound was evaluated for inhibitory activity against C.L Haemophilus influenzae ampicillin sensitive
Escherichia coli [9] = test: Compound was evaluated for inhibitory activity against EC14 Escherichia coli sensitive
Klebsiella aerogenes [10] = test: Compound was evaluated for inhibitory activity against EB17 Enterobacter aerogenes
Serratia [11] = test: Compound was evaluated for minimum inhibitory concentration against X99 Serratia
Providencia rettgeri [12] = test: Compound was evaluated for minimum inhibitory concentration against C24 Providencia rettgeri
Klebsiella pneumoniae [13] = test: Compound was evaluated for inhibitory activity against X26 Klebsiella pneumoniae
Klebsiella aerogenes [14] = test: Compound was evaluated for inhibitory activity against C32 Enterobacter aerogenes
Enterobacter cloacae [15] = test: Compound was evaluated for inhibitory activity against EB5 Enterobacter cloacae
Haemophilus influenzae [16] = test: Compound was evaluated for inhibitory activity against 76 Haemophilus influenzae beta-lactamase
Klebsiella pneumoniae [17] = test: Compound was evaluated for inhibitory activity against KAE Klebsiella pneumoniae
Staphylococcus aureus [18] = test: Compound was evaluated for inhibitory activity against S13E Staphylococcus aureus methicillin resistant penicillin resistant macrolide sensitive (PBP2a producer)
Citrobacter [19] = test: Compound was evaluated for minimum inhibitory concentration against CF17 Citrobacter
Serratia [20] = test: Compound was evaluated for minimum inhibitory concentration against SE3 Serratia
Streptococcus pneumoniae [21] = test: Compound was evaluated for inhibitory activity against Park S Streptococcus pneumoniae
Streptococcus pyogenes = test: Compound was evaluated for inhibitory activity against C203 Streptococcus pyogenes Gp.A
Staphylococcus aureus [22] = test: Compound was evaluated for inhibitory activity against X400S Staphylococcus aureus methicillin resistant and macrolide resistant
Citrobacter [23] = test: Compound was evaluated for inhibitory activity against CF17 Citrobacter
Salmonella [24] = test: Compound was evaluated for inhibitory activity against X514 Salmonella
Serratia [25] = test: Compound was evaluated for inhibitory activity against X99 Serratia
Streptococcus pneumoniae [26] = test: 32 Compound was evaluated for inhibitory activity against Park S Streptococcus pneumoniae
Providencia stuartii [27] = test: Compound was evaluated for inhibitory activity against PR33 Providencia stuartii
Providencia rettgeri [28] = test: Compound was evaluated for inhibitory activity against C24 Providencia rettgeri
Acinetobacter [29] = test: Compound was evaluated for inhibitory activity against AC12 Acinetobacter
Morganella morganii [30] = test: Compound was evaluated for inhibitory activity against PR15 Morganella morganii
Serratia [31] = test: Compound was evaluated for inhibitory activity against SE3 Serratia

Compound	MIC (Enterococcus faecalis)	MIC (Staphylococcus aureus [1])	MIC (Enterobacter cloacae [3])	MIC (Escherichia coli [4])	MIC (Haemophilus influenzae [8])	MIC (Escherichia coli [9])	MIC (Klebsiella aerogenes [10])	MIC (Klebsiella pneumoniae [13])	MIC (Klebsiella aerogenes [14])	MIC (Enterobacter cloacae [15])	MIC (Haemophilus influenzae [16])	MIC (Klebsiella pneumoniae [17])	MIC (Staphylococcus aureus [18])	MIC (Streptococcus pyogenes)	MIC (Staphylococcus aureus [22])	further results
Cc1ccc([C@@H](N)C(=O)N[C@@H]2C(=O)N3C(C(=O)O)=C(C(F)(F)F)CC[C@H]23)cc1	8 µM (≈ 3.18 µg/mL)	1 µM (≈ 0.397 µg/mL)	32 µM (≈ 12.7 µg/mL)	4 µM (≈ 1.59 µg/mL)	2 µM (≈ 0.795 µg/mL)	2 µM (≈ 0.795 µg/mL)	8 µM (≈ 3.18 µg/mL)	0.5 µM (≈ 0.199 µg/mL)	8 µM (≈ 3.18 µg/mL)	16 µM (≈ 6.36 µg/mL)	4 µM (≈ 1.59 µg/mL)	8 µM (≈ 3.18 µg/mL)	4 µM (≈ 1.59 µg/mL)	0.06 µM (≈ 0.0238 µg/mL)	4 µM (≈ 1.59 µg/mL)	MIC (Providencia stuartii [2]): 16 µM (≈ 6.36 µg/mL); MIC (Morganella morganii [5]): 8 µM (≈ 3.18 µg/mL); MIC (Acinetobacter [6]): 16 µM (≈ 6.36 µg/mL); MIC (Salmonella [7]): 4 µM (≈ 1.59 µg/mL); MIC (Serratia [11]): 16 µM (≈ 6.36 µg/mL); MIC (Providencia rettgeri [12]): 16 µM (≈ 6.36 µg/mL); MIC (Citrobacter [19]): 16 µM (≈ 6.36 µg/mL); MIC (Serratia [20]): 64 µM (≈ 25.4 µg/mL); MIC (Streptococcus pneumoniae [21]): 0.13 µM (≈ 0.0517 µg/mL)
N[C@@H](C(=O)N[C@@H]1C(=O)N2C(C(=O)O)=C(C(F)(F)F)CC[C@H]12)c1cccc(F)c1	32 µM (≈ 12.8 µg/mL)	2 µM (≈ 0.803 µg/mL)	32 µM (≈ 12.8 µg/mL)	2 µM (≈ 0.803 µg/mL)	2 µM (≈ 0.803 µg/mL)	4 µM (≈ 1.61 µg/mL)	8 µM (≈ 3.21 µg/mL)	2 µM (≈ 0.803 µg/mL)	16 µM (≈ 6.42 µg/mL)	16 µM (≈ 6.42 µg/mL)	2 µM (≈ 0.803 µg/mL)	16 µM (≈ 6.42 µg/mL)	32 µM (≈ 12.8 µg/mL)	0.06 µM (≈ 0.0241 µg/mL)	64 µM (≈ 25.7 µg/mL)	MIC (Citrobacter [23]): 16 µM (≈ 6.42 µg/mL); MIC (Salmonella [24]): 2 µM (≈ 0.803 µg/mL); MIC (Serratia [25]): 32 µM (≈ 12.8 µg/mL); MIC (Streptococcus pneumoniae [26]): 0.25 µM (≈ 0.1 µg/mL); MIC (Providencia stuartii [27]): 16 µM (≈ 6.42 µg/mL); MIC (Providencia rettgeri [28]): 16 µM (≈ 6.42 µg/mL); MIC (Acinetobacter [29]): 32 µM (≈ 12.8 µg/mL); MIC (Morganella morganii [30]): 32 µM (≈ 12.8 µg/mL); MIC (Serratia [31]): 64 µM (≈ 25.7 µg/mL)
